Reference: patent US6800652B2, “Diaryl compounds” (Pfizer Inc., priority 2002, dated 2004)

Key:
Assay type in all cases: cell-based
[1] = target: T1, human serotonin transporter (hSERT) (Homo sapiens, UniProt P31645); assay: Inhibition of 3H-serotonin uptake in HEK-293 cells stably transfected with hSERT; details: HEK-293 hSERT cells, 3H-5HT 50 nM, 5 min incubation, room temperature; read-out: SRI (serotonin re-uptake inhibition) IC50
T1 construct: expressed in transfected cells
Description: A number of compounds were tested for biological activity by their ability to inhibit the uptake of serotonin by human serotonin transporters as follows.
(§1) Human embryonic kidney cells (HEK-293) stably transfected with either the human serotonin transporter (hSERT), noradrenaline transporter (hNET) or dopamine transporter (hDAT) were cultured under standard cell culture techniques (cells were grown at 37° C. and 5% CO2 in DMEM-culture media (supplemented with 10% dialysed foetal calf serum (FCS), 2 mM I-glutamine and 250 μg/ml geneticin)). Cells were harvested for the assay to yield a cell suspension of 750,000 cells/ml.
(§2) All test compounds were dissolved in 100% DMSO and diluted down in assay buffer to give appropriate test concentrations. Assays were carried out in 96-well filter bottom plates. Cells (7500 cells/assay well) were pre-incubated in standard assay buffer containing either test compound, standard inhibitor or compound vehicle (1% DMSO) for 5 minutes. Reactions were started by addition of either ^3H-Serotonin, ^3H-Noradrenaline or ^3H-Dopamine substrates. All reactions were carried out at room temperature in a shaking incubator. […] The quantity of ^3H-substrate incorporated into the cells was then quantified.
(§3) Assay plates were dried in a microwave oven, scintillation fluid added, and radioactivity measured. […]

[2] = target: T2, dopamine transporter (hDAT) (Homo sapiens, UniProt Q01959); assay: Inhibition of 3H-dopamine uptake in HEK-293 cells stably transfected with hDAT; details: HEK-293 hDAT cells, 3H-Dopamine 200 nM, 5 min incubation, room temperature; read-out: DRI (dopamine re-uptake inhibition) IC50
T2 construct: expressed in transfected cells
T2 sequence (Q01959 whole entry): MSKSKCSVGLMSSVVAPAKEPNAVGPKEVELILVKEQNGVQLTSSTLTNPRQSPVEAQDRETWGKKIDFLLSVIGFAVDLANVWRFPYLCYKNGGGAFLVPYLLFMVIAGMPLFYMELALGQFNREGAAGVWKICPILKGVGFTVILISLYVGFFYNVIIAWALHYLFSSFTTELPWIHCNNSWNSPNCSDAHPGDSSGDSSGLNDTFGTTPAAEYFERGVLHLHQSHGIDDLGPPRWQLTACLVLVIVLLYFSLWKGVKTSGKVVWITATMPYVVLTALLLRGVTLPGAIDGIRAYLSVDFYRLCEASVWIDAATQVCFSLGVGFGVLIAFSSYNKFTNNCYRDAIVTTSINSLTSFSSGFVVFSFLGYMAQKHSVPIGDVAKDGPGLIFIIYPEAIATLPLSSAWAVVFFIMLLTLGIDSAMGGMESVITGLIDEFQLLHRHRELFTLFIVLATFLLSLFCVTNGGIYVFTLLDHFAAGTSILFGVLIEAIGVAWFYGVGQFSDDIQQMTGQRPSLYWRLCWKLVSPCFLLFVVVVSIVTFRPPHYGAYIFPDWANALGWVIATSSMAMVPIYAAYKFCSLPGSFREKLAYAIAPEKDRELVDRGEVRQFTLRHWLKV
Description: as §1
as §2, with “incubator. Incubation times were 5 minutes for the hSERT and hDAT assays and 15 minutes for the hNET assay.” for “incubator.”
as §3

[3] = target: T3, noradrenaline transporter (hNET) (Homo sapiens, UniProt P23975); assay: Inhibition of 3H-noradrenaline uptake in HEK-293 cells stably transfected with hNET; details: HEK-293 hNET cells, 3H-Noradrenaline 200 nM, 15 min incubation, room temperature; read-out: NRI (noradrenaline re-uptake inhibition) IC50
T3 construct: expressed in transfected cells
T3 sequence (P23975 whole entry): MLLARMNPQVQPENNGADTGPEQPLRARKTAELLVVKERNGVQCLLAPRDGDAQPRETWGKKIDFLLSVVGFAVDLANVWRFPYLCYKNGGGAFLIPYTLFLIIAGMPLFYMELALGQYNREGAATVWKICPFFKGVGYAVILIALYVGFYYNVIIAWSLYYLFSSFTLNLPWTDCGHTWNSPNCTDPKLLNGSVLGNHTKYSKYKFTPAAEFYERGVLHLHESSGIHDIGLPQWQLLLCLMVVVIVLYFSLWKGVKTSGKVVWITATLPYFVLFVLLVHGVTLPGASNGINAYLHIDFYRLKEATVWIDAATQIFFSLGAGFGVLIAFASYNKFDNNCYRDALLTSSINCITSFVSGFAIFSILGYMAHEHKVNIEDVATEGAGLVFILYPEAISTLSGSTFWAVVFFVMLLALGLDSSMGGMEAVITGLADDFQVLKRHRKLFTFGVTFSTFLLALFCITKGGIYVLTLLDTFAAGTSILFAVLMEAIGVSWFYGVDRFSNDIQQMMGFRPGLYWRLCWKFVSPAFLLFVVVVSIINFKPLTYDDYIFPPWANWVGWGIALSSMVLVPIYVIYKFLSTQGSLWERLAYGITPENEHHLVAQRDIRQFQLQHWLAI
Description: as §1
as §2, with “incubator. Incubation times were 5 minutes for the hSERT and hDAT assays and 15 minutes for the hNET assay.” for “incubator.”
as §3

T1 sequence (P31645 whole entry): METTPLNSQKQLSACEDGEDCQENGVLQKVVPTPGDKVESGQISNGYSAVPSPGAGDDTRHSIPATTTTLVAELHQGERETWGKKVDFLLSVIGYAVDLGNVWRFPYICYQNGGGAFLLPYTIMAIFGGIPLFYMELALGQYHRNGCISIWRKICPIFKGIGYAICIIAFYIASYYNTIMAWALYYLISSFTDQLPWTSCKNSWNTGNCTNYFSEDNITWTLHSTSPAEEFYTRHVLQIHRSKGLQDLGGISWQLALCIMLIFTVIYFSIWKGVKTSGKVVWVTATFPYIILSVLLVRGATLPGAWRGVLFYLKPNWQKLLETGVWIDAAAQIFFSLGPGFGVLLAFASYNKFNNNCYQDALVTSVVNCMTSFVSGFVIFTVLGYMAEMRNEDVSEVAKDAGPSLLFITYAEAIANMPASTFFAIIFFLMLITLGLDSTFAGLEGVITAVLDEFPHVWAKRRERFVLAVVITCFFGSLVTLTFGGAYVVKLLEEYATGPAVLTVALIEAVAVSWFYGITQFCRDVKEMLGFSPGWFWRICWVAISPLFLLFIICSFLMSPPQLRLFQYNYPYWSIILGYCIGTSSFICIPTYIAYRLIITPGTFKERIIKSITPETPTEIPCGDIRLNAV

`CSc1ccc(Sc2ccncc2CN(C)C)cc1` [Example 2, N,N-Dimethyl-N-[(4-{[4-(methylsulfanyl)phenyl]sulfanyl}-3-pyridinyl)methyl]amine] showed an IC50 [1] of 0.0022 µM, an IC50 [2] of 11.7 µM and an IC50 [3] of 0.564 µM.
